# Assay results published in patent US20080220446A1, “Method for Detecting and/or Removing Protein and/or Peptide Comprising a Cross-Beta Structure From an Aqueous Solution Comprising a Protein” (priority 2005, published 2008).
# Assays:
# [1] = tested on: tPA binding to amyloid-like aggregates; conditions: ELISAs; patent application P57716EP00 and unpublished data; cited from earlier work
# [2] = target: T1, LRP cl-IV binding to BSA-AGE (Bos taurus, UniProt P02769); assay: ELISA, interference with LRP cl-IV binding to BSA-AGE; parameters: species or system human; conditions: concentration series, 50 times diluted LRP cl-IV medium
# T1 construct: made in house; host or cells: HEK293E/S (LRP cl-IV, culture supernatant)
# Protocol: To test whether amyloid-like crossbeta structure binding compounds tPA, Congo red, Thioflavin T and Thioflavin S interfere with LRP cl-IV binding to BSA-AGE, concentration series of the potential inhibitory amyloid binding moieties were tested in the presence of 50 times diluted medium containing LRP cl-IV. The following inhibitors were used: tPA, Congo red, Thioflavin T (ThT) and Thioflavin S (ThS). As a control to tPA, K2P tPA, which lacks the amyloid-like misfolded protein binding finger domain, was included in the analyses. The influence of tPA and K2P tPA was tested in the presence of 10 mM ε-amino caproic acid to avoid binding of the kringle2 domain of tPA and K2P tPA to lysine- and arginine residues. Binding buffer and K2P tPA serve as negative controls in these inhibition studies. The concentration series was measured in triplicate, the values averaged and standard deviations calculated. Background signals obtained with buffer-coated wells were subtracted. Signals obtained with binding of LRP cluster IV to BSA-AGE was set arbitrarily to a reference binding of 100% and signals obtained with the concentration series of misfolded protein binding moieties and K2P tPA were calculated based on this set reference.
# platelets = assay: Aggregometric assay with washed platelets; type: cell-based, human; conditions: 200 μM
# Protocol: The presence of protein(s) and/or peptide(s) with amyloid-like misfolded protein conformation on activated blood platelets was tested with washed platelets in an aggregometric assay. Freshly drawn human aspirin free blood was mixed gently with citrate buffer to avoid coagulation. Blood was spinned for 15 minutes at 150*g at 20° C. and supernatant was collected; platelet rich plasma (PRP). […] After spinning down the platelets upon centrifugation for 15 minutes at 330*g at 20° C., the pellet was resuspended in HEPES-Tyrode buffer pH 6.5. Prostacyclin was added to a final concentration of 10 ng/ml, and the solution was centrifuged for 15 minutes at 330*g at 20° C., with a soft brake. The pellet was resuspended in HEPES-Tyrode buffer pH 7.2 in a way that the final platelet number was adjusted to 200,000/μl. Platelets were kept at 37° C. for at least 30 minutes, before use in the assays, to ensure that they were in the resting state.
# For the aggregometric assays, 400 μl platelet solution was added to a glass tube with 100 μl containing the agonist of interest, fibrinogen and CaCl2. Final concentrations of fibrinogen and CaCl2 were 0.5 mg/ml and 3 mM, respectively. A stirring magnet was added and the apparatus (Whole-blood aggregometer, Chrono-log, Havertown, Pa., USA) was blanked. Aggregation was followed in time by measuring the absorbance of the solution, that will decrease in time upon platelet aggregation. As a positive control, 0.5 U/ml thrombin was used, or TRAP. Aggregation was followed for 10 minutes. Influence of 200 μM Thioflavin T, 200 μM Congo red or 1 μM tPA on platelet aggregation was analyzed.
# [3] = target: T2, tPA binding to immobilized Hb-AGE (Homo sapiens, UniProt P68871+P69905); assay: ELISA, influence of ellagic acid on tPA binding to immobilized Hb-AGE
# T2 construct: purchased tPA: Boehringer Ingelheim (Actilyse); Hb: Sigma-Aldrich Hb: H7379
# Protocol: Determination of the influence of ellagic acid on the binding of a suboptimal concentration of tPA to a refined concentration of immobilized Hb-AGE. Parameter: a fixed concentration of tPA, in PBS with 0.1% (v/v) Tween20, 10 mM εACA and 10% DMSO, mixed with ellagic acid. As a positive control, tPA in binding buffer with 10% DMSO was used. This binding was set to 100% and values obtained after co-incubation of Hb-AGE with tPA with ellagic acid, were scaled accordingly. Binding experiments were performed in single wells, in a duplicate experiment. Binding data obtained with this duplicate experiment was averaged. Enhancement of tPA binding was arbitrarily set to values>100%. Inhibition of tPA binding to misfolded Hb-AGE was arbitrarily set to values smaller than 50%. With the chosen experimental lay-out, it can not be distinguished whether ellagic acid influences the interaction between tPA and Hb-AGE by binding to Hb-AGE only or by binding to tPA only or by binding to both tPA and Hb-AGE.
# In a next series of experiments, the ability of ellagic acid that interacts with tPA and/or Hb-AGE, to bind to immobilized fb-AGE, heat-denatured misfolded ovalbumin and amyloid-β was analyzed. In a first experiment, the coated misfolded Hb-AGE was first incubated with ellagic acid. After washing, tPA binding was assessed. Similar binding assays are performed with misfolded OVA and Aβ. […]
# tPA binding to DOVA = target: T3, tPA binding to DOVA (Gallus gallus, UniProt P01012); assay: ELISA, influence of ellagic acid on tPA binding to immobilized misfolded ovalbumin
# T3 construct: purchased tPA: Boehringer Ingelheim (Actilyse); OVA: Sigma OVA: A-7641
# T3 sequence (P01012 2-386 limits assumed): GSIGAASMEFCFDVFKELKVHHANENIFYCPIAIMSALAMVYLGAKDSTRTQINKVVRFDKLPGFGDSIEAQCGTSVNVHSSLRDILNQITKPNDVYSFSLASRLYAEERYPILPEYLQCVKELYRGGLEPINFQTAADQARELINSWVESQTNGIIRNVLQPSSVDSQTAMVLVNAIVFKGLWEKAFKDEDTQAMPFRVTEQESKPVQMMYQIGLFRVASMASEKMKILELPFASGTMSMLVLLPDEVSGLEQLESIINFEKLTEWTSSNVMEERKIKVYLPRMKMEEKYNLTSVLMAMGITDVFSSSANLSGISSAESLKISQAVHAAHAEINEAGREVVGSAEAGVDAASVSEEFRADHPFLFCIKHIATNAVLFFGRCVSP
# Protocol: In a next series of experiments, the ability of ellagic acid that interacts with tPA and/or Hb-AGE, to bind to immobilized fb-AGE, heat-denatured misfolded ovalbumin and amyloid-β was analyzed. In a first experiment, the coated misfolded Hb-AGE was first incubated with ellagic acid. After washing, tPA binding was assessed. Similar binding assays are performed with misfolded OVA and Aβ. Finally, concentration series of ellagic acid are used in the binding studies.
# Ellagic acid was co-incubated with 0.5 nM tPA. Controls: 1 mM ThT with 0.5 nM tPA, 0.5 mM CR with 0.5 nM tPA, 0.5 nM tPA without compound and buffer without tPA. Next, coated ELISA plates were first -pre-incubated with ellagic acid (for 30 minutes) followed by tPA incubation (for 30 minutes). For similar ELISA's with DOVA and Aβ(1-40) E22Q, 1 μg/ml DOVA or Aβ was coated and overlayed with 80 nM tPA. Subsequently, DOVA or Aβ coated wells and buffer-coated control wells were first incubated with 500 μg/ml ellagic acid, followed by an overlay with tPA.
# Aβ = target: T4, Aβ (Homo sapiens, UniProt P05067, E693Q); assay: Binding of Aβ from solution to immobilized ellagic acid; conditions: Nunc Maxisorp, Aβ 100 μg/ml, background subtracted
# T4 construct: Human amyloid-β (Ap) (1-40) Dutch type
# Protocol: (§1) To test the ability of ellagic acid to bind to misfolded proteins, ellagic acid was immobilized at 100 μg/ml in the wells of a 96-wells Greiner Microlon high binding plate and a Nunc Maxisorp plate. Ellagic acid was coated in 100 mM NaHCO3 pH 9.6, 50 μp/well, 1 h at room temperature with agitation. As a control for subtraction of background signals of binding of misfolded proteins to wells without ellagic acid, wells were coated with buffer only. After blocking of the plates, wells were overlayed with solutions of 0.1/1/10 μg/ml Hb-AGE or 10/100 μg/ml Aβ, in binding buffer (PBS/0.1% Tween20). After washing, binding of Hb-AGE was assessed by overlaying wells with 1 μg/ml hybridoma antibody 4B5, which binds to glycations (^1), followed by RAMPO. Binding of Aβ was visualized using 500× diluted anti-Aβ antibodies (mouse antibody beta-amyloid Clone 6F/3D #M0872, lot 00003503, DAKOCytomation; β-amyloid (H-43) SC-9129, 200 μg/ml rabbit polyclonal IgG, Santa Cruz Biotechnology) and RAMPO/SWARPO in a 1:1 ratio. Finally, wells were overlayed with OPD/H2O2 solution, and H2SO4, before absorbance readings at 490 nm.
# Hb-AGE = target: T5, Hb-AGE (Homo sapiens, UniProt P68871+P69905); assay: Binding of Hb-AGE from solution to immobilized ellagic acid; conditions: Hb-AGE 10 μg/ml, background subtracted
# T5 construct: purchased Sigma-Aldrich H7379
# Protocol: as §1
# fibronectin F4,5 = target: T6, fibronectin F4,5 (Homo sapiens, UniProt P02751); assay: Affinity determination ELISA, fibronectin F4,5 on coated (mis)folded proteins; type: binding; conditions: coated protein as labelled
# T6 construct: human fibronectin finger 4,5 (Fn F4,5) fragment; made in house; host or cells: HEK293E
# Source text: (§2) Synthetic genes of human BiP, human fibronectin finger 4,5 (Fn F4,5) fragment, and human tissue-type plasminogen activator finger EGF (tPA F-EGF) fragment were ordered from Geneart (Regensburg, Germany). These DNA constructs were digested using BamHI and NotI, and ligated into vector pABC674 (ABC-expression facility, Utrecht University, The Netherlands), which contains a carboxy-terminal FLAG-tag—His-tag. HEK293E cells were transiently transfected with these constructs using the polyethylene-imine method, and grown for 5-6 days.
# (§3) Denatured proteins and their native controls BSA (Sigma, A7906), glycated BSA, Hb (Sigma, H7605), glycated Hb, ovalbumin (Sigma, A6741), heat-denatured misfolded ovalbumin, human γ-globulins (Sigma, G4386), heat-denatured misfolded γ-globulins, alkyl-γ-globulins, lysozyme (ICN Biochemicals, 100831) and alkyl-lysozyme were coated on ELISA plates (Greiner Microlon high-binding, 655092) in 50 mM NaHCO3-buffer pH 9.6. The plates were blocked using Blocking reagent (Roche 1112589). […] Bound protein is detected by the FLAG-tag using 1:3000 anti-FLAG-HRP (Sigma A-8592) in PBS-T, or by 1:1000 Ni-NTA-HRP (Qiagen 34530) in PBS-T. The HRP reaction Is performed using the TMB substrate (Biosource 4501103 or Tebu Bio 101TMB100-500), stopped using 10% H2SO4 and absorbance was measured at 450 nm.
# BiP = target: T7, BiP (Homo sapiens, UniProt P11021); assay: Affinity determination ELISA, BiP on coated (mis)folded proteins; type: binding; conditions: coated protein as labelled
# T7 construct: made in house; host or cells: HEK293E
# Source text: as §2, §3
# T5 sequence (P69905 2-142 limits assumed): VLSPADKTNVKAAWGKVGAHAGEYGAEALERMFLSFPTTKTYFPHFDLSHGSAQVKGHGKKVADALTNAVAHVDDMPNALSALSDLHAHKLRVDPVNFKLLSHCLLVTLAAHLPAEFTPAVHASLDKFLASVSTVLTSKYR
# T5 sequence (P68871 2-147 limits assumed): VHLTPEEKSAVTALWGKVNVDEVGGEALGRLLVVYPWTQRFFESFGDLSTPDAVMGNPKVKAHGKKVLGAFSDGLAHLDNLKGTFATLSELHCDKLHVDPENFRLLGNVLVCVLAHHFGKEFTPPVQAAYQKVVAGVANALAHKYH
# T2 sequence (P69905 2-142 limits assumed): as the sequence (P69905 2-142 limits assumed) above
# T2 sequence (P68871 2-147 limits assumed): as the sequence (P68871 2-147 limits assumed) above
# T7 sequence (P11021 19-654): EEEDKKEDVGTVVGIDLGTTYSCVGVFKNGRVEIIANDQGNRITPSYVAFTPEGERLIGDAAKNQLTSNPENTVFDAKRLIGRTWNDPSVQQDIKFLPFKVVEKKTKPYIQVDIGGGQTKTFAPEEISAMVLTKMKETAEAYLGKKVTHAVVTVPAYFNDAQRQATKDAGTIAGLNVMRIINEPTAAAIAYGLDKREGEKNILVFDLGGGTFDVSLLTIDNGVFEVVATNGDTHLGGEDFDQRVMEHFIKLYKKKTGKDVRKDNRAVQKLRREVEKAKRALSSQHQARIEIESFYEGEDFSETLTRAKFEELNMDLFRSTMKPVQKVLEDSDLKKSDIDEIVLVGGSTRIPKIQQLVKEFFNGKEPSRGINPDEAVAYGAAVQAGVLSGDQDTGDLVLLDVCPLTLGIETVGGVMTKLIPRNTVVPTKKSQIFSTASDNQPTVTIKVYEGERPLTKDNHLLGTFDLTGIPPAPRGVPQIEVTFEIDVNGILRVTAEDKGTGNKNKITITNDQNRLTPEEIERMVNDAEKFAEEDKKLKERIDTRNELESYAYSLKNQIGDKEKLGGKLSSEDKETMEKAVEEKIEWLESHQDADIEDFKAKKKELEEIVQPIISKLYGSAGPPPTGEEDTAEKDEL
# T6 sequence (P02751 182-276 limits assumed): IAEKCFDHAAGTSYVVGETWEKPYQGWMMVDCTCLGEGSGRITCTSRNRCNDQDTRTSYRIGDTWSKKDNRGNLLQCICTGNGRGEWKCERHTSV
# T1 sequence (P02769 25-607): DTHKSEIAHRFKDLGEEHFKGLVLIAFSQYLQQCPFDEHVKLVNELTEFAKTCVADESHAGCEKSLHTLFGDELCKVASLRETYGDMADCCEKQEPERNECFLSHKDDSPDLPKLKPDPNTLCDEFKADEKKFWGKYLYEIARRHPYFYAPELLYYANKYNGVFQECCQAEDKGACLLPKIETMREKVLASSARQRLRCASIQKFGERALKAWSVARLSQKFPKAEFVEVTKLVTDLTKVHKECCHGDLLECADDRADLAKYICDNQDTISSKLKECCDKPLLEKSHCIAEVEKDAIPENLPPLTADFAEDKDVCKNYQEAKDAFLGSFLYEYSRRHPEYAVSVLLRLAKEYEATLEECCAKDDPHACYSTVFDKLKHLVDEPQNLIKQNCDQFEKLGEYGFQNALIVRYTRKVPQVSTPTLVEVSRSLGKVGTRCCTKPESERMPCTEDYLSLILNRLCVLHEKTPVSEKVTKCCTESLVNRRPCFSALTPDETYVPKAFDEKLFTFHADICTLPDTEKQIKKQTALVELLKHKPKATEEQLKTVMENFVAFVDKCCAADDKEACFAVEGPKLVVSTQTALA
molecule,measurement,setting,value
"Cc1ccc2c(c1)sc(-c1ccc(N(C)C)cc1)[n+]2C.[Cl-] [ThT, Thioflavin T]",competition for tPA binding to amyloid-like aggregates,[1],did not inhibit tPA binding at all
same,influence on binding of LRP cl-IV to BSA-AGE,[2],do not interfere
same,inhibition of platelet aggregation,platelets,up to 45%
O=c1oc2c(O)c(O)cc3c(=O)oc4c(O)c(O)cc1c4c23 [ellagic acid],influence on tPA binding to Hb-AGE,[3]; ELISA,stimulator of tPA binding
same,direct interaction with immobilized misfolded protein,"[3]; pre-incubation of coated Hb-AGE or misfolded OVA, then tPA",binds directly to misfolded protein
same,influence on tPA binding to DOVA,tPA binding to DOVA,stimulator of tPA binding
same,Signal,Aβ,0.054 a.u.
same,Signal,Hb-AGE; Greiner Microlon,0.13 a.u.
same,Signal,Hb-AGE; Nunc Maxisorp,0.15 a.u.
Freshly dissolved lysozyme: lysozyme (ICN Biochemicals),"affinity for fibronectin F4,5","fibronectin F4,5",high affinity
heat-denatured BSA: heat-denatured bovine serum albumin,binding of BiP,BiP,not
